Values quoted from earlier work in patent EP3850074B1, “BENEFIT AGENT DELIVERY PARTICLES” (Unilever Global IP Ltd, priority 2018, dated 2020).

Details: at 25°C and at atmospheric pressure

Nc1nc(N)nc(N)n1 [melamine, 2,4,6-triamino-1,3,5-triazine]
solubility in distilled water: about 0.3 g/L
